Data published in a melting point compilation (Tetko et al.; mined from patent text by program, amines drawn as free bases though some values may be those of a salt).

| SMILES | melting point [°C] |
| --- | --- |
| COC(=O)NNC(=O)CCCl | 129 |
| Cc1cccc(C)c1NC(=O)c1ccc(S(C)(=O)=O)cc1 | 164 to 166 |
| CC1OOC2CC1CC(=O)C2C (configuration not stated) | 160 |
| CCC(=O)NCC[C@@H]1CCc2ccc(O)c(CCO)c21 | 144 to 146 |
| Cc1nc(Nc2ccccc2)nc(C#N)c1C | 181 to 184 |
| Cc1ccc(S(=O)(=O)O[C@@H]2C[C@@H](CCl)N(S(=O)(=O)c3ccc(C)cc3)C2)cc1 | 145 to 146 |
| CCOC(OCC)C(=O)Nc1ccc(Cl)cc1N | 89 to 90 |
| NNc1ccnc(-c2cccc(I)c2)n1 | 179 to 181 |
| COC(=O)C12COc3ccccc3C1NN(C(=O)Nc1ccc(C(F)(F)F)cc1)C2 (configuration not stated) | 211 to 212 |
| O=C(Nc1ccc(Oc2ccccc2)cc1)N1CCN(c2ccnc3c(Cl)cccc23)CC1 | 174 to 175 |
| N#Cc1cccc(C2=Nc3ccc(C=Cc4ccccc4)cc3NC(=O)C2)c1 | 185 to 188 |
| Cc1oc(-c2ccccc2)nc1COc1ccc(Cc2nc(-c3ccccc3)c(CCC(=O)O)[nH]2)cc1 | 193 to 196 |
| COC(=O)CCCCc1cccnc1CNC=O | 43 to 45 |
| O=C(O)CNC1CCc2ccc(O)cc21 (configuration not stated) | 260 |
| O=c1n(CO)c2ccccc2n1CO | 157 to 161 |
| O=C1NCN(c2ccc(F)cc2)C12CCN(CCNC(c1ccc(F)cc1)c1ccc(F)cc1)CC2 | 193 |
| N#CS/C=C\C(=O)N1CCCCC1 | 88 to 90 |
| CCN1CCC(=NO)c2ccn(CCCCN3CCC(C(=O)c4ccc(F)cc4)CC3)c2C1=O | 158 to 160 |
| COC(=O)NN=C1CCCCCC1 | 75 |
| COc1ccc(CSc2nnc(-c3ccc4[nH]ncc4c3)o2)cc1 | 204 to 205 |
| CC(=O)NCCOc1ccc(N)cc1O | 134 |
| O=C(c1ccc(C2CCCCC2)cc1)[C@H]1C[C@H]1C(=O)O (relative stereo) | 162 to 163 |
| COC(=O)[C@H](C)N(C(=O)[C@H](CC(C)C)NC(=O)OC(C)(C)C)c1ccc(Cl)c(Cl)c1 | 117 to 119 |
| COC(=O)c1cccc(NC(=O)C=C(c2ccc(Cl)cc2)c2ccc(Cl)cc2)c1 | 155 to 159 |
| O=C1NCCc2ccccc2N1OCCCCN1CCN(c2cccc(C3CC3)n2)CC1 | 155 to 156 |
| O=C(/C=C/c1ccc2ccccc2c1)Nc1cc(Cl)ccc1NS(=O)(=O)c1ccccc1 | 220 to 223 |

| SMILES | melting point [°C] |
| --- | --- |
| Cc1cc(-c2ccccc2)n2nccc2n1 | 70 to 71 |
| CCCCc1ncc(/C=C(\Cc2ccsc2)c2nnn[nH]2)n1Cc1ccccc1Cl | 142 to 144 |
| O=C(NCC(=O)N1c2ccccc2N(Cc2ccccc2)C(=O)[C@H]2CCC[C@H]21)c1ccccc1[N+](=O)[O-] (relative stereo) | 132 to 135 |
| C#Cc1cn(C2CC(F)C(COC(c3ccccc3)(c3ccccc3)c3ccccc3)O2)c(=O)[nH]c1=O (configuration not stated) | 54 |
| c1ccc(CN2CCCCC2)c(CN2CCCCC2)c1 | 86 to 88 |
| CC(=O)Nc1ccc([N+](=O)[O-])c(N2CCN(C(C)=O)CC2)n1 | 189 to 193 |
| NC(=O)c1c(F)ccc([N+](=O)[O-])c1F | 134 to 135 |
| CC(=O)NCCS(=O)C1(Cl)CC2CC(=O)N2C1C(=O)OCc1ccccc1 (configuration not stated) | 89 to 93 |
| Cc1cc2c(cc1C)[C@@H](O)[C@H](CN1CCC3(CC1)C(=O)NCN3c1ccccc1)CC2 (relative stereo) | 232 to 233 |
| NCc1ccc(N2CCCN(c3ccc(CCC(=O)O)cc3)C2=O)cc1 | 229 to 231 |
| CNCC(O)c1ccc(C)o1 (configuration not stated) | 40 to 45 |
| CCOC(=O)CC(=O)C(C)(C)Sc1ccccc1 | 44 to 45 |
| O=C(Nc1cccc2[nH]ccc12)c1ccccc1OCCCCl | 140 |
| CC(C)CC(NC(c1ccc(-c2ccc(S(C)(=O)=O)cc2)cc1)C(F)(F)F)C(=O)NCC#N (configuration not stated) | 140 |
| O=C1NCC(C(F)(F)F)C(=O)N1Cc1ccccc1 (configuration not stated) | 129 to 130 |
| CCC/C(=C\C#N)c1ccc2c(c1)C(CC)(CC)OC(=O)N2 | 121 to 124 |
| Cc1c(C)c2c(c(C)c1O)CCC(C)(COc1ccc(NC(=S)NC(c3ccccc3)c3ccccc3)cc1)O2 (configuration not stated) | 146 to 148 |
| CCCCC(=O)Nc1ccn(C2OC(CO)C(O)C2O)c(=O)n1 (configuration not stated) | 132 to 135 |
| CCCCCCCN(CCc1ccc(OC(C)(C)C(=O)O)cc1)C(=O)Nc1ccc(F)cc1 | 162 to 164 |
| Nc1ccc(CC2CCN(S(=O)(=O)N3CCCCC3)CC2)cc1 | 144 to 145 |
| S=c1ncn(-c2ccc(Cl)cc2)[nH]1 | 222 to 224 |
| CC(C)n1nc(O)nc1Cl | 100 to 104 |
| N#CCCNC(=O)c1cccc(-c2cccn3c(=O)n(Cc4cccc(C(F)(F)F)c4)nc23)c1 | 217 to 219 |
| Nc1ccc(OCc2ccc(F)cc2)cc1F | 42 to 43 |
| c1ccc(-c2cc(N3CCCCC3)c(-c3ccccc3)o2)cc1 | 103 |

The remaining lines, values ahead:

| melting point [°C] | SMILES |
| --- | --- |
| 173 to 174 | CNc1nc2ccccc2c(-c2ccccc2)c1C(=O)N(C)Cc1cc(C(F)(F)F)cc(C(F)(F)F)c1 |
| 87 to 88 | CCn1c(=O)c2conc2n(C)c1=O |
| 144 to 148 | O=C(NCc1ccccn1)C1=C(C(=O)Nc2cc(OC3CCCC3)c(Cl)cc2F)CCCC1 |
| 213 to 214 | CCCc1c(O)ccc2c(OCc3ccccc3)cc(=O)oc12 |
| 144 to 146 | Cc1cccc(C(=O)Cc2ccnc(NC(=O)OC(C)(C)C)c2)c1 |
| 240 to 241 | CC1CC(=O)NN=C1c1ccc(NC(=O)OCC2CC2)cc1 (configuration not stated) |
| 124 to 126 | CCOC(=O)c1cn(C(=O)c2ccccc2)c2sc(-c3ccc(OC)cc3)c(CBr)c2c1=O |
| 208 | Cc1ccc(-c2cc(C(=O)C=Cc3ccc(C(=O)O)cc3)cc(C(C)(C)C)c2OCc2ccccc2)cc1 |
| 235 to 238 | COC1C2=C3C(=CN1OC)OCCC3CCC2 (configuration not stated) |
| 111 to 112 | COc1ccc(C=CC(=O)c2c(OC)cc(OC)cc2OC(=O)c2ccc(OC)cc2)cc1 |
| 172 to 173 | CN(C)Cc1cc2c(cc1O)CCC1C2CCC2(C)C(=O)CCC12 (configuration not stated) |
| 165 | Cc1ccc(S(=O)(=O)N2[C@@H](c3ncon3)CC[C@H]2c2ccc(F)cc2)cc1 (racemic) |
| 106 | COC(=O)CC1c2cc([N+](=O)[O-])ccc2N(C(C)=O)C1C (configuration not stated) |
| 118 to 120 | COc1ccc(-c2ncnnc2-c2ccc(OC)cc2)cc1 |
| 297 to 298 | COC(=O)c1ccc2c3cccc4cccc(c5ccc(C(=O)N(C)c6cc(C(C)(C)C)ccc6C(C)(C)C)c1c25)c43 |
| 159 to 161 | CCN1C(=O)C(C)(C)C(=O)N(C)c2cc(OCCCn3cc(-c4ccc(OC)nc4)c(=O)c4ccccc43)ccc21 |
| 168 | CC(=O)OC1CSC(Oc2cnccc2-c2ccc(C(F)(F)F)cc2)C(OC(C)=O)C1OC(C)=O (configuration not stated) |
| 190 to 193 | COC(=O)c1c(Cc2ccc(C(=O)CO)cc2)c(=O)c2ccc(C)nc2n1-c1ccccc1 |
| 103 to 105 | COc1c(C2CCN(CCCCNC(=O)c3ccc(-c4ccc(Cl)cc4)cn3)CC2)ccc2c1CCCC2 |
| 271 to 272 | CC(=O)Nc1ccc(C=Cc2cc(=O)cc(-c3ccccc3)o2)cc1 |
| 86 to 87 | Cc1cc(N)n(-c2ccc(Cl)cc2C)n1 |
| 124 to 128 | CC1CCN(C(=O)C(Cc2cc3c(N)nccc3s2)NS(=O)(=O)c2ccc(COC3CCOCC3)cc2)CC1 (configuration not stated) |
| 142 to 144 | COc1ccccc1-c1nc(=S)n(Cc2ccccc2)[nH]1 |

| melting point [°C] | SMILES |
| --- | --- |
| 261 to 263 | O=C(O)c1cn(-c2ccc(F)cc2)c2c(F)c(F)c(F)cc2c1=O |
| 166 | NC1=NCC(COc2ccccc2[N+](=O)[O-])O1 (configuration not stated) |
| 94 to 96 | CCCn1cc(Cc2ccc(C(=O)NS(=O)(=O)c3ccccc3C)cc2OC)c2cc(CCCC(=O)N(C)C)ccc21 |
| 105 to 106 | C#Cc1ccc(C#N)cc1OC |
| 296 to 297 | COc1cc(C2C3=C(COC3=O)Nc3ccc4ncsc4c32)ccc1O (configuration not stated) |
| 99 to 105 | Cc1cc(F)ccc1-c1nc(NC(C)(C)CO)nc2c1ccc(=O)n2-c1c(F)cccc1F |
| 97 | Cc1cccc(-c2n[nH]cc2-c2ccc(F)c(-c3ccc(N4CCN(C)CC4)cn3)c2)n1 |
| 176 to 177 | COc1cc(O)c(Cl)c2cc(-c3ccc(O)cc3)oc12 |
| 88 to 89 | O=C(c1ccc(-c2ccc(Cl)cc2)o1)C1CC1 |
| 226 to 228 | COc1ccc(-c2nc3ccc(OC(F)(F)F)cc3[nH]2)cc1OCc1ccccc1 |
| 78 | CCCCc1nc(Cl)c(CC(=O)OCC)c(Cc2ccc(C(=O)OC)cc2)n1 |
| 165 to 169 | Cc1nc(N(C)C)sc1C(=O)c1ccc(Cl)c([N+](=O)[O-])c1 |
| 248 to 250 | O=C1CCC(N2Cc3c(OCc4ccc(Cn5ccnc5)cc4)cccc3C2=O)C(=O)N1 (configuration not stated) |
| 216 to 218 | Cc1cc(C)c(COc2cccc3c2C(=O)c2c(Cl)ccc(Cl)c2C3=O)c(C)c1 |
| 148 to 149 | COc1cc(C2C(=O)N(C)Cc3cc4c(cc32)OCCO4)cc(OC)c1OC (configuration not stated) |
| 109 to 112 | O=C1CC(O)CC(/C=C/c2c(Cl)cc(Cl)cc2OCc2ccccc2)O1 (configuration not stated) |
| 270 to 272 | COc1cccc(OC)c1-c1cc(C(=O)NC2(C(=O)O)C3CC4CC(C3)CC2C4)nn1-c1ccc(C(=O)NC2CC(C)(C)NC(C)(C)C2)cc1C(C)C (configuration not stated) |
| 118 to 120 | CC(C)(O)CCOc1c(-c2ccc(S(C)(=O)=O)cc2)cnn(-c2ccc(Cl)c(Cl)c2)c1=O |
| > 320 | CC(=O)Nc1ccc2nc3[nH]c(=O)[nH]c3cc2c1 |
| 143 to 145 | CC(C)c1ccc([N+](=O)[O-])c(C(C)C)c1NC(=O)CN1CCN(CCSc2nc3ccccc3o2)CC1 |
| 64 to 67 | CN(C)CCC1CCCCN1C1c2ccccc2Oc2ccccc21 (configuration not stated) |
| 168 to 169 | COc1ccc(CNc2n[nH]c3ncnc(Nc4cccc(Cl)c4)c23)c(OC)c1OC |
| 134 | N#Cc1c(N2CCN(C(=O)c3ccco3)CC2)c2cc(Cl)cnc2n(Cc2cccc(F)c2)c1=O |
